Three compounds from patent publication US7129267B2, “Methods for SHP1 mediated neuroprotection” (Janssen Pharmaceutica N.V., priority 2002, dated 2006) can be followed below.

Molecules are shown by their SMILES.

For the test, the target named is SHP1 (Homo sapiens, UniProt P29350). Kind of test: SHP1 tyrosine phosphatase activity inhibition assay. The test is classed as biochemical. Conditions: under the assay conditions. From the text:
The invention further provides a method of identifying an inhibitor of a SHP1 tyrosine phosphatase activity, comprising the steps of: • 1) contacting a test compound with a SHP1 protein or an active fragment thereof; and • 2) determining the ability of the test compound to decrease the tyrosine phosphatase activity of SHP1.
A variety of assay methods can be used to determine the effect of the compound on the tyrosine phosphatase activity of SHP1. Some of the assay methods are disclosed in WO99/54450. For example, SHP1 phosphotase activity can be measured as a function of the ability of SHP1 to dephosphorylate a substrate, such as a phosphorylated JAK2. In particular, a phosphorylated peptide derived from JAK2. The dephosphorylation reaction can be monitored using a malachite green assay (Lanzetta et al., Anal Biochem. 1979, 100:95–7), which measures the release of inorganic phosphate from the substrate. Alternatively, SHP1 phosphotase activity can be measured in vivo by changes in cellular physiology affected by the SHP1 phosphotase activity, such as the inactivation of the EPOR signal transduction pathway.
Compounds of Formula I, II, and III were identified as inhibitors for SHP1 tyrosine phosphatase activity using methods of the invention.

Chain of SHP1 (P29350 whole entry, the tested form may be a part): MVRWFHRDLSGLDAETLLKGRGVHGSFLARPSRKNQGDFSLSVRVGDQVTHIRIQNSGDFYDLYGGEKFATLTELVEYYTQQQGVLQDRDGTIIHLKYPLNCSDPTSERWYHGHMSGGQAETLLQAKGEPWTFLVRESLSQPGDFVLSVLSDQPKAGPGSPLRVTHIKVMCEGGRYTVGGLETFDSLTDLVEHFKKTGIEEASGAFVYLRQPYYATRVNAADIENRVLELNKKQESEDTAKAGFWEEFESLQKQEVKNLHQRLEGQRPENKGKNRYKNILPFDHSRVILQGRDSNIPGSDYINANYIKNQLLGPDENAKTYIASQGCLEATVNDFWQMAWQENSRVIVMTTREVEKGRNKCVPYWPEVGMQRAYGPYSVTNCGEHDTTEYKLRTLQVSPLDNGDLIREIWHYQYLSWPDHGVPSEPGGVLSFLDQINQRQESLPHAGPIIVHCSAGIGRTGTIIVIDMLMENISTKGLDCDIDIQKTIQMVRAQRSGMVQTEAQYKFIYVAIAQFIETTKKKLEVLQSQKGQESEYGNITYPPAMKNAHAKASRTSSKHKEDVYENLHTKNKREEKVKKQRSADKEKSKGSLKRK

`O=C1CSC(=S)N1CNc1ccc(NCN2C(=O)CSC2=S)cc1`: half-maximal inhibition (IC50) required 4.3 µM. Consider `CC(=O)Nc1ccc(/C=C2/SC(=S)NC2=O)cc1`, for which the midpoint of inhibition, the IC50, lay at 25.7 µM. For the compound `O=C(O)/C=C/c1ccc(/C=C/C(=O)O)s1`, the concentration for half-maximal inhibition (IC50) (in general, the concentration that inhibits the measured activity by half) worked out at 22 µM.
